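Five concentrations, 48 hours, 96-well plates. GI50 is the concentration that inhibits growth by half.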 Calls of active or inactive are those of the source. No stated cut-off is given here; in the data, active = GI50 up to about 1.1 µM and inactive = higher.
Assays:
Test in all cases: growth of human tumour cells (NCI), 48 h
[1] = system: CCRF-CEM
[2] = system: HCT-116
[3] = system: HOP-62
[4] = system: Hs-578T
[5] = system: LOX IMVI
[6] = system: MCF7
[7] = system: MDA-MB-231
[8] = system: MDA-N
[9] = system: Malme-3M
[10] = system: NCI-H23
[11] = system: PC-3
[12] = system: RXF 393
[13] = system: SK-OV-3
[14] = system: SNB-19
[15] = system: SNB-75
[16] = system: SW-620
[17] = system: T47D
[18] = system: TK-10

Measured: GI50

CSc1nc2cc(S(=O)(=O)N3CCCCC3)ccc2s1
inactive: [1] > 100 µM | [2] > 100 µM | [3] 57 µM | [4] > 100 µM | [5] > 100 µM | [6] > 100 µM | [7] > 100 µM | [8] > 100 µM | [9] > 100 µM | [10] > 100 µM | [11] > 100 µM | [12] > 100 µM | [13] > 100 µM | [14] > 100 µM | [15] 61.4 µM | [16] > 100 µM | [17] > 100 µM | [18] > 100 µM

O=C(O)CCN1C(=S)CSC1=S
inactive: [1] 44.2 µM | [2] > 100 µM | [3] > 100 µM | [4] > 100 µM | [5] 94.4 µM | [6] 67.5 µM | [7] > 100 µM | [8] > 100 µM | [9] > 100 µM | [10] > 100 µM | [11] > 100 µM | [12] > 100 µM | [13] > 100 µM | [14] > 100 µM | [15] > 100 µM | [16] > 100 µM | [17] > 100 µM | [18] > 100 µM

CC(C)(CO[C@H]1C[C@H]2CC[C@@]1(C)C2(C)C)[N+](=O)[O-]
inactive: [1] 18.8 µM | [2] 15.3 µM | [3] 19.5 µM | [4] 27.4 µM | [5] 18.1 µM | [6] 22.9 µM | [7] 18.1 µM | [8] 15.6 µM | [9] 20.3 µM | [10] 25.9 µM | [11] 20.9 µM | [12] 11 µM | [13] 29.1 µM | [14] 14.1 µM | [15] 19.4 µM | [16] 22.2 µM | [17] 19.6 µM | [18] 17.1 µM

COc1ccc(CSC2=C(C#N)C(=O)NC3(CCCCC3)S2)cc1
inactive: [1] 2.66 µM | [2] 44.5 µM | [3] 61.8 µM | [4] 41.9 µM | [5] 30.1 µM | [6] 34.2 µM | [7] > 76.4 µM | [8] 22.4 µM | [9] 54.5 µM | [10] 48.8 µM | [11] 74.8 µM | [12] 30.5 µM | [13] 44.7 µM | [14] 54.5 µM | [15] 62.2 µM | [16] 32.6 µM | [17] 27.5 µM | [18] > 95.5 µM

COc1ccc(CCN2C(=O)C=CC2=O)cc1OC
inactive: [1] 1.85 µM | [2] 3.53 µM | [3] 22.5 µM | [4] 32.4 µM | [5] 18.5 µM | [6] 17.3 µM | [7] 14.1 µM | [8] 17.8 µM | [9] 13.8 µM | [10] 22 µM | [11] 18.7 µM | [12] 4.9 µM | [13] 18.8 µM | [14] 19.5 µM | [15] 20.5 µM | [16] 2.28 µM | [17] 7.16 µM | [18] 15.2 µM

CCOC(=O)NNC(=O)NCCNC(=O)NNC(=O)OCC
inactive: [1] > 100 µM | [2] > 100 µM | [4] > 100 µM | [5] > 100 µM | [6] > 100 µM | [7] > 100 µM | [8] > 100 µM | [9] > 100 µM | [10] > 100 µM | [11] > 100 µM | [12] > 100 µM | [13] > 100 µM | [14] > 100 µM | [15] > 100 µM | [16] > 100 µM | [17] > 100 µM | [18] > 100 µM

C[N+]1(C(CO)Cc2c[nH]c3ccccc23)Cc2ccccc2C1 (configuration not stated)
inactive: [1] > 100 µM | [2] > 100 µM | [3] > 100 µM | [4] > 100 µM | [5] > 100 µM | [6] > 100 µM | [7] > 100 µM | [8] > 100 µM | [9] 13.7 µM | [10] > 100 µM | [11] > 100 µM | [12] > 100 µM | [13] > 100 µM | [14] > 100 µM | [15] > 100 µM | [16] > 100 µM | [17] > 100 µM | [18] > 100 µM

O=C1/C(=C/c2ccccc2)CCc2ccc([N+](=O)[O-])cc21
inactive: [1] 4.13 µM | [2] 24.4 µM | [3] > 71.3 µM | [4] 37.4 µM | [5] 21.5 µM | [6] 4.17 µM | [7] 69.3 µM | [8] 35 µM | [9] 46.8 µM | [10] 34.7 µM | [11] 44.2 µM | [12] 23.8 µM | [13] 41 µM | [14] 27.2 µM | [15] 37.3 µM | [16] > 70 µM | [17] > 51.6 µM | [18] 60.1 µM

Cc1nc(Nc2ccc(Cl)cc2Cl)sc1C(=O)Nc1ccccc1
inactive: [1] 34.1 µM | [2] 35.1 µM | [3] 81.1 µM | [4] 47 µM | [5] 23.4 µM | [6] 36 µM | [7] 56.5 µM | [8] 81.3 µM | [9] > 100 µM | [10] 46 µM | [11] 31 µM | [12] 33.3 µM | [13] > 100 µM | [14] > 100 µM | [15] 39 µM | [16] > 100 µM | [17] 22.4 µM | [18] 57.4 µM

CC1(C)[C@@H](Cn2cnc3c(N)ncnc32)CC[C@@]1(C)CO
inactive: [1] 51.9 µM | [2] 44.9 µM | [3] > 100 µM | [4] > 100 µM | [5] > 100 µM | [6] 74.1 µM | [7] > 100 µM | [8] 50 µM | [9] > 100 µM | [10] 55 µM | [11] 66.2 µM | [12] > 100 µM | [13] > 100 µM | [14] > 100 µM | [15] > 100 µM | [16] 82.8 µM | [17] > 100 µM | [18] > 100 µM

CC(C)Cc1c(C#N)c(C#N)c(N)n1Cc1ccccc1
inactive: [1] > 100 µM | [2] > 100 µM | [3] > 100 µM | [4] > 100 µM | [5] > 100 µM | [6] > 100 µM | [7] > 100 µM | [8] > 100 µM | [9] > 100 µM | [10] > 100 µM | [11] > 100 µM | [12] > 100 µM | [13] > 100 µM | [14] > 100 µM | [15] 40.8 µM | [16] > 100 µM | [17] > 100 µM | [18] > 100 µM

Source: ChEMBL document CHEMBL1201862, “PubChem BioAssay data set” (2004)
